Assay results reported in PubChem BioAssay (NCI).
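How tested: cells in 96-well plates exposed to compound for 48 hours at five concentrations. GI50: concentration for 50% inhibition of growth. TGI is the concentration that stops growth completely.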

How the values were obtained:
Assay in all cases: NCI tumour cell line growth inhibition, 48 h
SF-539 CNS = test system: SF-539 CNS
MOLT-4 leukemia = test system: MOLT-4 leukemia
SK-MEL-2 melanoma = test system: SK-MEL-2 melanoma
SK-MEL-5 melanoma = test system: SK-MEL-5 melanoma
SW-620 colon = test system: SW-620 colon
MDA-MB-435 = test system: MDA-MB-435
A549 NSCLC = test system: A549 NSCLC
M14 melanoma = test system: M14 melanoma
U251 CNS = test system: U251 CNS
ACHN renal = test system: ACHN renal
NCI-H23 lung = test system: NCI-H23 lung
SF-268 CNS = test system: SF-268 CNS
NCI/ADR-RES ovarian = test system: NCI/ADR-RES ovarian
UO-31 renal = test system: UO-31 renal
CAKI-1 renal = test system: CAKI-1 renal
IGROV1 ovarian = test system: IGROV1 ovarian
EKVX NSCLC = test system: EKVX NSCLC
NCI-H460 lung = test system: NCI-H460 lung
BT-549 breast = test system: BT-549 breast
DU-145 prostate = test system: DU-145 prostate
K-562 leukemia = test system: K-562 leukemia
LOX IMVI melanoma = test system: LOX IMVI melanoma
HCT-116 colon = test system: HCT-116 colon
HOP-62 NSCLC = test system: HOP-62 NSCLC
786-0 renal = test system: 786-0 renal
COLO 205 colon = test system: COLO 205 colon
MCF7 breast = test system: MCF7 breast
HCC-2998 colon = test system: HCC-2998 colon
HCT-15 colon = test system: HCT-15 colon
HT29 colon = test system: HT29 colon
T-47D breast = test system: T-47D breast
SR leukemia = test system: SR leukemia
RPMI-8226 leukemia = test system: RPMI-8226 leukemia
MALME-3M melanoma = test system: MALME-3M melanoma
HS 578T breast = test system: HS 578T breast
OVCAR-3 ovarian = test system: OVCAR-3 ovarian
SNB-19 CNS = test system: SNB-19 CNS
TK-10 renal = test system: TK-10 renal
MDA-MB-231 breast = test system: MDA-MB-231 breast
KM12 colon = test system: KM12 colon
SK-MEL-28 melanoma = test system: SK-MEL-28 melanoma
A498 renal = test system: A498 renal
PC-3 prostate = test system: PC-3 prostate
SNB-75 CNS = test system: SNB-75 CNS
HOP-92 NSCLC = test system: HOP-92 NSCLC
SK-OV-3 ovarian = test system: SK-OV-3 ovarian
SF-295 CNS = test system: SF-295 CNS
OVCAR-5 ovarian = test system: OVCAR-5 ovarian
SN12C renal = test system: SN12C renal
NCI-H522 lung = test system: NCI-H522 lung
NCI-H226 lung = test system: NCI-H226 lung
OVCAR-4 ovarian = test system: OVCAR-4 ovarian
HL-60(TB) leukemia = test system: HL-60(TB) leukemia
UACC-62 melanoma = test system: UACC-62 melanoma

COc1cc2c3c(n(CCCNCCCNCCCn4c5c(c6ccccc6c4=O)C(=O)c4ccccc4-5)c(=O)c2cc1OC)-c1cc2c(cc1C3=O)OCO2
GI50 (SF-539 CNS): < 0.01 µM | GI50 (MOLT-4 leukemia): < 0.01 µM | TGI (MOLT-4 leukemia): > 100 µM | GI50 (SK-MEL-2 melanoma): 640 nM | TGI (SK-MEL-2 melanoma): 3.1 µM | GI50 (SK-MEL-5 melanoma): 29.8 nM | TGI (SK-MEL-5 melanoma): 634 nM | GI50 (SW-620 colon): < 0.01 µM | TGI (SW-620 colon): 197 nM | GI50 (MDA-MB-435): 154 nM | TGI (MDA-MB-435): 1680 nM | GI50 (A549 NSCLC): 20.1 nM | TGI (A549 NSCLC): 2300 nM | GI50 (M14 melanoma): 987 nM | TGI (M14 melanoma): 2150 nM | GI50 (U251 CNS): < 0.01 µM | TGI (U251 CNS): 20.5 nM | GI50 (ACHN renal): < 0.01 µM | TGI (ACHN renal): < 0.0219 µM | GI50 (NCI-H23 lung): < 0.01 µM | TGI (NCI-H23 lung): 82.6 nM | GI50 (SF-268 CNS): < 0.01 µM | TGI (SF-268 CNS): 21.7 nM | GI50 (NCI/ADR-RES ovarian): > 40.5 µM | TGI (NCI/ADR-RES ovarian): > 67.1 µM | GI50 (UO-31 renal): 27.2 nM | TGI (UO-31 renal): 1690 nM | GI50 (CAKI-1 renal): 158 nM | TGI (CAKI-1 renal): 2530 nM | GI50 (IGROV1 ovarian): < 0.01 µM | TGI (IGROV1 ovarian): > 100 µM | GI50 (EKVX NSCLC): < 0.01 µM | TGI (EKVX NSCLC): 578 nM | GI50 (NCI-H460 lung): < 0.01 µM | TGI (NCI-H460 lung): 11.3 nM | GI50 (BT-549 breast): < 10 nM | TGI (BT-549 breast): 1100 nM | GI50 (DU-145 prostate): < 0.01 µM | TGI (DU-145 prostate): 213 nM | GI50 (K-562 leukemia): 40.3 nM | TGI (K-562 leukemia): > 100 µM | GI50 (LOX IMVI melanoma): < 0.01 µM | TGI (LOX IMVI melanoma): < 0.0361 µM | GI50 (HCT-116 colon): < 0.015 µM | TGI (HCT-116 colon): 263 nM | GI50 (HOP-62 NSCLC): < 0.0434 µM | TGI (HOP-62 NSCLC): 695 nM | TGI (786-0 renal): 1070 nM

Cc1nc(NC(=O)CCCN2C(=O)c3cccc4cccc(c34)C2=O)sc1C(=O)Nc1cc(C(=O)NCCCN(C)C)n(C)c1
GI50 (COLO 205 colon): > 100 µM | TGI (COLO 205 colon): > 100 µM | GI50 (SF-539 CNS): > 100 µM | TGI (SF-539 CNS): > 100 µM | GI50 (MCF7 breast): > 100 µM | TGI (MCF7 breast): > 100 µM | GI50 (MOLT-4 leukemia): > 100 µM | TGI (MOLT-4 leukemia): > 100 µM | GI50 (HCC-2998 colon): > 100 µM | TGI (HCC-2998 colon): > 100 µM | GI50 (SK-MEL-2 melanoma): > 100000 nM | TGI (SK-MEL-2 melanoma): > 100 µM | GI50 (HCT-15 colon): > 100 µM | TGI (HCT-15 colon): > 100 µM | GI50 (HT29 colon): > 100 µM | TGI (HT29 colon): > 100 µM | GI50 (SK-MEL-5 melanoma): > 100000 nM | TGI (SK-MEL-5 melanoma): > 100000 nM | GI50 (SW-620 colon): > 100 µM | TGI (SW-620 colon): > 100000 nM | GI50 (MDA-MB-435): > 100000 nM | TGI (MDA-MB-435): > 100000 nM | GI50 (T-47D breast): > 100 µM | TGI (T-47D breast): > 100 µM | GI50 (A549 NSCLC): > 100000 nM | TGI (A549 NSCLC): > 100000 nM | GI50 (M14 melanoma): > 100000 nM | TGI (M14 melanoma): > 100000 nM | GI50 (U251 CNS): > 100 µM | TGI (U251 CNS): > 100000 nM | GI50 (SR leukemia): > 100 µM | TGI (SR leukemia): > 100 µM | GI50 (RPMI-8226 leukemia): > 100 µM | TGI (RPMI-8226 leukemia): > 100 µM | GI50 (ACHN renal): > 100 µM | TGI (ACHN renal): > 100 µM | GI50 (MALME-3M melanoma): > 100 µM | TGI (MALME-3M melanoma): > 100 µM | GI50 (NCI-H23 lung): > 100 µM | TGI (NCI-H23 lung): > 100000 nM | GI50 (SF-268 CNS): > 100 µM | TGI (SF-268 CNS): > 100000 nM | GI50 (HS 578T breast): > 100 µM | TGI (HS 578T breast): > 100 µM | GI50 (OVCAR-3 ovarian): > 100 µM | TGI (OVCAR-3 ovarian): > 100 µM | GI50 (SNB-19 CNS): > 100 µM | TGI (SNB-19 CNS): > 100 µM | GI50 (NCI/ADR-RES ovarian): > 100 µM | TGI (NCI/ADR-RES ovarian): > 100 µM | GI50 (TK-10 renal): > 100 µM | TGI (TK-10 renal): > 100 µM | GI50 (MDA-MB-231 breast): > 100 µM | TGI (MDA-MB-231 breast): > 100 µM | GI50 (UO-31 renal): > 100000 nM | TGI (UO-31 renal): > 100000 nM | GI50 (CAKI-1 renal): > 100000 nM | TGI (CAKI-1 renal): > 100000 nM | GI50 (KM12 colon): > 100 µM | TGI (KM12 colon): > 100 µM | GI50 (SK-MEL-28 melanoma): > 100 µM | TGI (SK-MEL-28 melanoma): > 100 µM | GI50 (A498 renal): > 100 µM | TGI (A498 renal): > 100 µM | GI50 (IGROV1 ovarian): > 100 µM | TGI (IGROV1 ovarian): > 100 µM | GI50 (EKVX NSCLC): > 100 µM | TGI (EKVX NSCLC): > 100000 nM | GI50 (NCI-H460 lung): > 100 µM | TGI (NCI-H460 lung): > 100000 nM | GI50 (PC-3 prostate): > 100 µM | TGI (PC-3 prostate): > 100 µM | GI50 (SNB-75 CNS): > 100 µM | TGI (SNB-75 CNS): > 100 µM | GI50 (HOP-92 NSCLC): > 100 µM | TGI (HOP-92 NSCLC): > 100 µM | GI50 (DU-145 prostate): > 100 µM | TGI (DU-145 prostate): > 100000 nM | GI50 (SK-OV-3 ovarian): > 100 µM | TGI (SK-OV-3 ovarian): > 100 µM | GI50 (SF-295 CNS): > 100 µM | TGI (SF-295 CNS): > 100 µM | GI50 (OVCAR-5 ovarian): > 100 µM | TGI (OVCAR-5 ovarian): > 100 µM | GI50 (K-562 leukemia): > 100000 nM | TGI (K-562 leukemia): > 100 µM | GI50 (SN12C renal): > 100 µM | TGI (SN12C renal): > 100 µM | GI50 (NCI-H522 lung): > 100 µM | TGI (NCI-H522 lung): > 100 µM | GI50 (NCI-H226 lung): > 100 µM | TGI (NCI-H226 lung): > 100 µM | GI50 (LOX IMVI melanoma): > 100 µM | TGI (LOX IMVI melanoma): > 100 µM | GI50 (OVCAR-4 ovarian): 94.8 µM | TGI (OVCAR-4 ovarian): > 100 µM | GI50 (HCT-116 colon): > 100 µM | TGI (HCT-116 colon): > 100000 nM | GI50 (HL-60(TB) leukemia): > 100 µM | TGI (HL-60(TB) leukemia): > 100 µM | GI50 (HOP-62 NSCLC): > 100 µM | TGI (HOP-62 NSCLC): > 100000 nM | GI50 (UACC-62 melanoma): > 100 µM | TGI (UACC-62 melanoma): > 100 µM | GI50 (786-0 renal): > 100 µM | TGI (786-0 renal): > 100000 nM
